Results from patent publication US10414811B2, “Protease-resistant lipidated GLP-1 analogs” (MEDIMMUNE LIMITED, priority 2015, dated 2019).
Read-outs that look alike come from different tables or passages of the source. Numbered stars: 1 amine (or outer) side, 2 acyl side, 3 side chain; on linkers, the order of the positions; unused ones are H or OH. Square brackets hold non-standard residues; d marks the D form. Side chains are listed from the residue outwards. Peptide text beside a SMILES is read from it. * marks the point of attachment. γGlu = O=C(O)[C@H](CCC(=O)[*:2])N[*:1]; Palmitoyl = CCCCCCCCCCCCCCCC(=O)*; αMeF = C[C@](N)(Cc1ccccc1)C(=O)O; αMeK = C[C@](N)(CCCCN)C(=O)O; αMeS = C[C@](N)(CO)C(=O)O; Aib = CC(C)(N)C(=O)O

Legend:
Type in all cases: cell-based
[1] = biological target: T1, human GLP-1 receptor (GLP-1R) (Homo sapiens, UniProt P43220); assay: cAMP assay, human GLP-1R cells
T1 construct: expressed in transfected cells
T1 sequence (P43220 24-463): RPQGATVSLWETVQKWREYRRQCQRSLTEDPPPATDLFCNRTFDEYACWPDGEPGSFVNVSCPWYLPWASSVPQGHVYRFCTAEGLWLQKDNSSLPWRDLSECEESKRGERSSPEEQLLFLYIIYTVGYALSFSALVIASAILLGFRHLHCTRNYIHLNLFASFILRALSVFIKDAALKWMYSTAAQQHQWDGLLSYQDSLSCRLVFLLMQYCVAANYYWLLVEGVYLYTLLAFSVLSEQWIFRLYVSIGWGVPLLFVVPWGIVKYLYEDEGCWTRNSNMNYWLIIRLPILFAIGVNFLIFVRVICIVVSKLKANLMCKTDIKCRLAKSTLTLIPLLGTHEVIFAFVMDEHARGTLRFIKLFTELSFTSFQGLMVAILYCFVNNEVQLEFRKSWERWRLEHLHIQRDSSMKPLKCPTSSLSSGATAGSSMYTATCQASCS
How it was run: (§1)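 Peptide-stimulated cAMP measured by two-step HTRF after a 30 min room-temperature incubation with receptor-expressing cells (hGLP-1R, hGIPR at 1×10^5 cells/ml; hGCGR at 2×10^5 cells/ml). Duplicate dilutions; EC50 from 4-parameter logistic fit of % Delta F.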

[2] = biological target: T2, human glucagon receptor (GCGR) (Homo sapiens, UniProt P47871); assay: cAMP assay, human GCGR cells; conditions: cAMP assay
T2 construct: expressed in transfected cells
T2 sequence (P47871 26-477): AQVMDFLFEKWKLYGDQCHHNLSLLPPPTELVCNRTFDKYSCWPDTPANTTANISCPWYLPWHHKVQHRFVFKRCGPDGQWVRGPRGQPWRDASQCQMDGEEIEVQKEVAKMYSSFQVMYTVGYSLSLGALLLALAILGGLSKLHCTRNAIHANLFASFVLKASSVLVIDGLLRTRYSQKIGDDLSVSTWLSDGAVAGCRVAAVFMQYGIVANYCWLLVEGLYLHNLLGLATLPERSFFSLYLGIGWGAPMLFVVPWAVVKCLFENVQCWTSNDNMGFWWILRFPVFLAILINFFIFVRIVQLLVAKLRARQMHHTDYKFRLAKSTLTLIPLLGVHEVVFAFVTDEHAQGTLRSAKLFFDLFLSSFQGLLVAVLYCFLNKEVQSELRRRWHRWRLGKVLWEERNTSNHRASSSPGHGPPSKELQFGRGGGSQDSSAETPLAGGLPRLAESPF
How it was run: as §1

[3] = biological target: T3, human glucose-dependent insulinotropic peptide receptor (GIPR) (Homo sapiens, UniProt P48546); assay: cAMP assay, human GIPR cells; conditions: cAMP assay
T3 construct: expressed in transfected cells
T3 sequence (P48546 22-466): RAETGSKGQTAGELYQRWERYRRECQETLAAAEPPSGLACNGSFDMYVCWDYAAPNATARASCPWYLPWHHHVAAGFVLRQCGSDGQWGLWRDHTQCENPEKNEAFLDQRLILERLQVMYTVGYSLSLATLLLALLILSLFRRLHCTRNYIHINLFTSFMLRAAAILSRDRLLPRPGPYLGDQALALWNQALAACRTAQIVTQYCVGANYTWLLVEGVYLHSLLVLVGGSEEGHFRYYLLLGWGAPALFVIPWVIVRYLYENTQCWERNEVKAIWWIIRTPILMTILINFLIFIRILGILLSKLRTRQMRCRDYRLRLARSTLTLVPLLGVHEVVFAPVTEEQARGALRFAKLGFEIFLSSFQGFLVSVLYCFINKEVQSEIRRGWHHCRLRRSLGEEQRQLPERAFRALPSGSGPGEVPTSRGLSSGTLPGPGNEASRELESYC
How it was run: as §1

[4] = cAMP assay, first determination (n1), read-out: Primary assay EC50 GLP-1R n1
[5] = cAMP assay, second determination (n2), read-out: Primary assay EC50 GLP-1R n2
[6] = mean of n1 and n2, read-out: Mean pM GLP-1R
[7] = first determination (n1), read-out: Primary assay EC50 Gluc-R (n1)
[8] = second determination (n2), read-out: Primary assay EC50 Gluc-R (n2)
[9] = first determination (n1), read-out: Primary assay EC50 GIP-R (n1)
[10] = second determination (n2), read-out: Primary assay EC50 GIP-R (n2)

An EC50 [1, 4] of 33 pM, an EC50 [1, 5] of 33 pM and an EC50 [1, 6] of 33 pM were found for CCCCCCCCCCCCCCCC(=O)N[C@@H](CCC(=O)NCCCC[C@H](NC(=O)CNC(=O)CNC(=O)[C@H](CCCCN)NC(=O)[C@@H](NC(=O)[C@@H](NC(=O)[C@](C)(Cc1ccccc1)NC(=O)[C@H](C)NC(=O)[C@@H](NC(=O)[C@](C)(Cc1ccccc1)NC(=O)[C@H](CCC(=O)O)NC(=O)[C@H](CCCCN)NC(=O)[C@H](C)NC(=O)[C@H](C)NC(=O)[C@H](CCC(=O)O)NC(=O)CNC(=O)[C@H](CCC(=O)O)NC(=O)[C@H](CC(C)C)NC(=O)[C@](C)(Cc1ccccc1)NC(=O)[C@H](CO)NC(=O)[C@H](CO)NC(=O)[C@@H](NC(=O)[C@H](CC(=O)O)NC(=O)[C@H](CO)NC(=O)[C@@H](NC(=O)[C@](C)(Cc1ccccc1)NC(=O)[C@H](CO)NC(=O)CNC(=O)[C@H](CCC(=O)O)NC(=O)C(C)(C)NC(=O)[C@@H](N)Cc1c[nH]cn1)[C@@H](C)O)C(C)C)[C@@H](C)CC)C(C)C)C(C)C)C(N)=O)C(=O)O [compound 39] (H-H[Aib]EGS[αMeF]TSDVSS[αMeF]LEGEAAKE[αMeF]IA[αMeF]VVKGGK([γGlu-Palmitoyl])-NH2; N-terminus assumed) in this work. For the same compound, the EC50 [2, 7] was at least 27 nM, the EC50 [2, 8] was at least 27 nM and the EC50 [3, 9] was at least 27 nM. The EC50 [3, 10] was at least 27 nM.
An EC50 [1, 4] of 1800 pM, an EC50 [1, 5] of 570 pM and an EC50 [1, 6] of 1170 pM were found for CC[C@H](C)[C@H](NC(=O)[C@](C)(Cc1ccccc1)NC(=O)[C@H](CCC(=O)O)NC(=O)[C@H](CCCCNC(=O)COCCOCCNC(=O)COCCOCCNC(=O)CC[C@H](NC(=O)CCCCCCCCCCCCCCCCC(=O)O)C(=O)O)NC(=O)[C@H](C)NC(=O)[C@H](C)NC(=O)[C@H](CCC(=O)O)NC(=O)CNC(=O)[C@H](CCC(=O)O)NC(=O)[C@H](CC(C)C)NC(=O)[C@](C)(Cc1ccccc1)NC(=O)[C@H](CO)NC(=O)[C@H](CO)NC(=O)[C@@H](NC(=O)[C@H](CC(=O)O)NC(=O)[C@H](CO)NC(=O)[C@@H](NC(=O)[C@](C)(Cc1ccccc1)NC(=O)[C@H](CO)NC(=O)CNC(=O)[C@H](CCC(=O)O)NC(=O)C(C)(C)NC(=O)[C@@H](N)Cc1c[nH]cn1)[C@@H](C)O)C(C)C)C(=O)N[C@@H](C)C(=O)N[C@@](C)(Cc1ccccc1)C(=O)N[C@H](C(=O)N[C@H](C(=O)N[C@@H](CCCCN)C(=O)NCC(=O)NCC(N)=O)C(C)C)C(C)C [compound 40] in this work. The EC50 [2, 7] was at least 85 nM, the EC50 [2, 8] was at least 26 nM and the EC50 [3, 9] was at least 85 nM. The EC50 [3, 10] was at least 26 nM.
An EC50 [1, 4] of 240 pM, an EC50 [1, 5] of 51 pM and an EC50 [1, 6] of 147 pM were found for CCCCCCCCCCCCCCCC(=O)N[C@@H](CCC(=O)NCCCC[C@H](NC(=O)[C@H](C)NC(=O)[C@H](C)NC(=O)[C@H](CCC(=O)O)NC(=O)CNC(=O)[C@H](CCC(=O)O)NC(=O)[C@H](CC(C)C)NC(=O)[C@](C)(Cc1ccccc1)NC(=O)[C@H](CO)NC(=O)[C@H](CO)NC(=O)[C@@H](NC(=O)[C@H](CC(=O)O)NC(=O)[C@H](CO)NC(=O)[C@@H](NC(=O)[C@](C)(Cc1ccccc1)NC(=O)[C@H](CO)NC(=O)CNC(=O)[C@H](CCC(=O)O)NC(=O)C(C)(C)NC(=O)[C@@H](N)Cc1c[nH]cn1)[C@@H](C)O)C(C)C)C(=O)N[C@@H](CCC(=O)O)C(=O)N[C@@](C)(Cc1ccccc1)C(=O)N[C@H](C(=O)N[C@@H](C)C(=O)N[C@@](C)(Cc1ccccc1)C(=O)N[C@H](C(=O)N[C@H](C(=O)N[C@@H](CCCCN)C(=O)NCC(=O)NCC(N)=O)C(C)C)C(C)C)[C@@H](C)CC)C(=O)O [compound 41] in this work. The EC50 [2, 7] was at least 94 nM, the EC50 [2, 8] was at least 28 nM and the EC50 [3, 9] was at least 94 nM. For the same compound, the EC50 [3, 10] was at least 28 nM.
An EC50 [1, 4] of 74 pM, an EC50 [1, 5] of 92 pM and an EC50 [1, 6] of 83 pM were found for CCCCCCCCCCCCCCCC(=O)N[C@@H](CCC(=O)NCCCC[C@H](NC(=O)CNC(=O)[C@](C)(CCCCN)NC(=O)[C@@H](NC(=O)[C@@H](NC(=O)[C@](C)(Cc1ccccc1)NC(=O)[C@H](C)NC(=O)[C@@H](NC(=O)[C@](C)(Cc1ccccc1)NC(=O)[C@H](CCC(=O)O)NC(=O)[C@](C)(CCCCN)NC(=O)[C@H](C)NC(=O)[C@H](C)NC(=O)[C@H](CCC(=O)O)NC(=O)CNC(=O)[C@H](CCC(=O)O)NC(=O)[C@H](CC(C)C)NC(=O)[C@](C)(Cc1ccccc1)NC(=O)[C@H](CO)NC(=O)[C@](C)(CO)NC(=O)[C@@H](NC(=O)[C@H](CC(=O)O)NC(=O)[C@H](CO)NC(=O)[C@@H](NC(=O)[C@](C)(Cc1ccccc1)NC(=O)[C@H](CO)NC(=O)CNC(=O)[C@H](CCC(=O)O)NC(=O)C(C)(C)NC(=O)[C@@H](N)Cc1c[nH]cn1)[C@@H](C)O)C(C)C)[C@@H](C)CC)C(C)C)C(C)C)C(N)=O)C(=O)O [compound 70] (H-H[Aib]EGS[αMeF]TSDV[αMeS]S[αMeF]LEGEAA[αMeK]E[αMeF]IA[αMeF]VV[αMeK]GK([γGlu-Palmitoyl])-NH2; N-terminus assumed) in this work. For the same compound, the EC50 [2, 7] was at least 27 nM, the EC50 [2, 8] was at least 27 nM and the EC50 [3, 9] was at least 27 nM. The EC50 [3, 10] was at least 27 nM.
An EC50 [1, 4] of 130 pM, an EC50 [1, 5] of 160 pM and an EC50 [1, 6] of 146 pM were found for CCCCCCCCCCCCCCCC(=O)N[C@@H](CCC(=O)NCCCC[C@H](NC(=O)[C@@H](NC(=O)[C@](C)(Cc1ccccc1)NC(=O)[C@H](C)NC(=O)[C@@H](NC(=O)[C@](C)(Cc1ccccc1)NC(=O)[C@H](CCC(=O)O)NC(=O)[C@](C)(CCCCN)NC(=O)[C@H](C)NC(=O)[C@H](C)NC(=O)[C@H](CCC(=O)O)NC(=O)CNC(=O)[C@H](CCC(=O)O)NC(=O)[C@H](CC(C)C)NC(=O)[C@](C)(Cc1ccccc1)NC(=O)[C@H](CO)NC(=O)[C@](C)(CO)NC(=O)[C@@H](NC(=O)[C@H](CC(=O)O)NC(=O)[C@H](CO)NC(=O)[C@@H](NC(=O)[C@](C)(Cc1ccccc1)NC(=O)[C@H](CO)NC(=O)CNC(=O)[C@H](CCC(=O)O)NC(=O)C(C)(C)NC(=O)[C@@H](N)Cc1c[nH]cn1)[C@@H](C)O)C(C)C)[C@@H](C)CC)C(C)C)C(=O)N[C@@](C)(CCCCN)C(=O)NCC(=O)NCC(N)=O)C(=O)O [compound 73] (H-H[Aib]EGS[αMeF]TSDV[αMeS]S[αMeF]LEGEAA[αMeK]E[αMeF]IA[αMeF]VK([γGlu-Palmitoyl])[αMeK]GG-NH2) in this work. The EC50 [2, 7] was at least 28 nM, the EC50 [2, 8] was at least 28 nM and the EC50 [3, 9] was at least 28 nM. The EC50 [3, 10] was at least 28 nM.
An EC50 [1, 4] of 18 pM, an EC50 [1, 5] of 9.3 pM and an EC50 [1, 6] of 14 pM were found for CCCCCCCCCCCCCCCC(=O)N[C@@H](CCC(=O)NCCCC[C@H](NC(=O)[C@H](CCC(=O)O)NC(=O)[C@](C)(CCCCN)NC(=O)[C@H](C)NC(=O)[C@H](C)NC(=O)[C@H](CCC(=O)O)NC(=O)CNC(=O)[C@H](CCC(=O)O)NC(=O)[C@H](CC(C)C)NC(=O)[C@](C)(Cc1ccccc1)NC(=O)[C@H](CO)NC(=O)[C@](C)(CO)NC(=O)[C@@H](NC(=O)[C@H](CC(=O)O)NC(=O)[C@H](CO)NC(=O)[C@@H](NC(=O)[C@](C)(Cc1ccccc1)NC(=O)[C@H](CO)NC(=O)CNC(=O)[C@H](CCC(=O)O)NC(=O)C(C)(C)NC(=O)[C@@H](N)Cc1c[nH]cn1)[C@@H](C)O)C(C)C)C(=O)N[C@H](C(=O)N[C@@H](C)C(=O)N[C@@](C)(Cc1ccccc1)C(=O)N[C@H](C(=O)N[C@H](C(=O)N[C@@](C)(CCCCN)C(=O)NCC(=O)NCC(N)=O)C(C)C)C(C)C)[C@@H](C)CC)C(=O)O [compound 78] in this work. The EC50 [2, 7] was at least 28 nM, the EC50 [2, 8] was at least 28 nM and the EC50 [3, 9] was at least 28 nM. The EC50 [3, 10] was at least 28 nM.
An EC50 [1, 4] of 370 pM, an EC50 [1, 5] of 200 pM and an EC50 [1, 6] of 283 pM were found for CCCCCCCCCCCCCCCC(=O)N[C@@H](CCC(=O)NCCCC[C@H](NC(=O)[C@H](C)NC(=O)[C@H](CCC(=O)O)NC(=O)CNC(=O)[C@H](CCC(=O)O)NC(=O)[C@H](CC(C)C)NC(=O)[C@](C)(Cc1ccccc1)NC(=O)[C@H](CO)NC(=O)[C@](C)(CO)NC(=O)[C@@H](NC(=O)[C@H](CC(=O)O)NC(=O)[C@H](CO)NC(=O)[C@@H](NC(=O)[C@](C)(Cc1ccccc1)NC(=O)[C@H](CO)NC(=O)CNC(=O)[C@H](CCC(=O)O)NC(=O)C(C)(C)NC(=O)[C@@H](N)Cc1c[nH]cn1)[C@@H](C)O)C(C)C)C(=O)N[C@@](C)(CCCCN)C(=O)N[C@@H](CCC(=O)O)C(=O)N[C@@](C)(Cc1ccccc1)C(=O)N[C@H](C(=O)N[C@@H](C)C(=O)N[C@@](C)(Cc1ccccc1)C(=O)N[C@H](C(=O)N[C@H](C(=O)N[C@@](C)(CCCCN)C(=O)NCC(=O)NCC(N)=O)C(C)C)C(C)C)[C@@H](C)CC)C(=O)O [compound 81] (H-H[Aib]EGS[αMeF]TSDV[αMeS]S[αMeF]LEGEAK([γGlu-Palmitoyl])[αMeK]E[αMeF]IA[αMeF]VV[αMeK]GG-NH2; N-terminus assumed) in this work. For the same compound, the EC50 [2, 7] was at least 27 nM, the EC50 [2, 8] was at least 27 nM and the EC50 [3, 9] was at least 27 nM. For the same compound, the EC50 [3, 10] was at least 27 nM.
